Ten molecules from US20250340557A1, “PYRIMIDINE DERIVATIVE” (ASKA PHARMACEUTICAL CO., LTD., priority 2022, published 2025) can be followed below.

Each structure is given as a SMILES string. Read-outs that look alike come from different tables or passages of the source.

The target of the assay is T1, human mPGES-1 (Homo sapiens, UniProt O14684).
T1 construct: made in house; host or cells: COS-1 cells (transient transfection; microsomal fraction used as enzyme)
T1 sequence (O14684 1-152): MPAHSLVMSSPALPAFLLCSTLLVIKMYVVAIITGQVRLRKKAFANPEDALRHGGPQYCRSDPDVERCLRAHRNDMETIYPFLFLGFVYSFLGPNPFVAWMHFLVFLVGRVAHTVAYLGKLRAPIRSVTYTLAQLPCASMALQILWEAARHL
Nature of the assay: Test for mPGES-1 inhibitory activity (microsomal enzyme, PGE2 EIA). The class given is biochemical. The settings on record: 4° C., 4 minutes, read-out: h mPGES1 IC50. As for the experimental part:
Test Example 1: Test for mPGES-1 Inhibitory Activity
Microsomes were prepared from COS-1 cells transiently transfected with a plasmid containing human mPGES-1 cDNA, and used as mPGES-1 enzyme. The mPGES-1 enzyme was diluted with a sodium phosphate buffer (pH 7.2) containing reduced glutathione (2.5 mM) and EDTA (1 mM), DMSO or a DMSO solution of a test compound (final concentration of DMSO was 2%) was added to the enzyme, and the mixture was preincubated at 4° C. for 15 minutes. Then, PGH2 (Prostaglandin H2) as the substrate was added at a final concentration of 1 μM to start the enzymatic reaction, and after incubation at 4° C. for 4 minutes, a solution of ferric chloride (25 mM) and citric acid (50 mM) was added to terminate the enzymatic reaction. Generated PGE2 (Prostaglandin E2) was measured by using Prostaglandin E2 Express EIA Kit (Cayman Chemical). IC50 values were determined by using a standard method.

Setting [1] is: microsomes of COS-1 cells transfected with human mPGES-1 cDNA, PGH2 1 μM, PGE2 by EIA.
Where [2] appears, read: microsomes from COS-1 cells transfected with human mPGES-1 cDNA, substrate PGH2 1 μM, PGE2 measured by EIA.

For orientation: IC50 means the concentration at which inhibition is half-maximal. Take `O=c1cc(C(F)(F)F)nc(-c2c(C(F)(F)F)ccc(CNC(=O)[C@H]3C[C@@H](OCc4ccc(F)c(Cl)c4)C3)c2F)[nH]1` [Example 158, cis-3-[(3-chloro-4-fluorobenzyl)oxy]-N-{2-fluoro-3-[6-oxo-4-(trifluoromethyl)-1,6-dihydropyrimidin-2-yl]-4-(trifluoromethyl)benzyl}cyclobutane-1-carboxamide]: the IC50 under setting [1] is < 1 nM.
On the same count and under the same terms, then `O=C(NCc1ccc(C(F)(F)F)c(-c2nc(C(F)(F)F)cc(=O)[nH]2)c1F)C1CCN(C(=O)Cc2ccc(F)cc2)CC1` [Example 275, N-{2-fluoro-3-[6-oxo-4-(trifluoromethyl)-1,6-dihydropyrimidin-2-yl]-4-(trifluoromethyl)benzyl}-1-[2-(4-fluorophenyl)acetyl]piperidine-4-carboxamide], with 0.94 nM.
As for `Cc1cc(=O)[nH]c(-c2c(C(F)(F)F)ccc(CNC(=O)[C@H]3C[C@H](OCc4cccc(F)c4)C3)c2F)n1` [Example 188, trans-N-[2-fluoro-3-(4-methyl-6-oxo-1,6-dihydropyrimidin-2-yl)-4-(trifluoromethyl)benzyl]-3-[(3-fluorobenzyl)oxy]cyclobutane-1-carboxamide], the IC50 under setting [1] was found to be 10 nM.
In the case of `CCc1cc(=O)[nH]c(-c2c(C(F)(F)F)ccc(CNC(=O)[C@H]3C[C@H](OCc4cccc(Cl)c4F)C3)c2F)n1` [Example 208, trans-3-[(3-chloro-2-fluorobenzyl)oxy]-N-[3-(4-ethyl-6-oxo-1,6-dihydropyrimidin-2-yl)-2-fluoro-4-(trifluoromethyl)benzyl]cyclobutane-1-carboxamide], under setting [1], the IC50 was found to be 8.8 nM.
As for `O=C(NCc1ccc(C(F)(F)F)c(-c2nc(C(F)F)cc(=O)[nH]2)c1F)C1CCN(c2ccc(OC(F)(F)F)cc2)CC1` [Example 85, N-{3-[4-(difluoromethyl)-6-oxo-1,6-dihydropyrimidin-2-yl]-2-fluoro-4-(trifluoromethyl)benzyl}-1-[4-(trifluoromethoxy)phenyl]piperidine-4-carboxamide], the IC50 under setting [2] was 0.61 nM.
On to `CCc1nc(-c2c(C(F)(F)F)ccc(CNC(=O)C3CCN(c4ccc(OC(F)(F)F)cc4)CC3)c2F)[nH]c(=O)c1F` [Example 80, N-[3-(4-ethyl-5-fluoro-6-oxo-1,6-dihydropyrimidin-2-yl)-2-fluoro-4-(trifluoromethyl)benzyl]-1-[4-(trifluoromethoxy)phenyl]piperidine-4-carboxamide], for which the IC50 under setting [2] amounted to 22 nM.
Turning to `Cc1nc(-c2c(C(F)(F)F)ccc(CNC(=O)[C@H]3CC[C@H](OCc4ccc(Cl)cc4)CC3)c2F)[nH]c(=O)c1F` [Example 104, trans-4-[(4-chlorobenzyl)oxy]-N-[2-fluoro-3-(5-fluoro-4-methyl-6-oxo-1,6-dihydropyrimidin-2-yl)-4-(trifluoromethyl)benzyl]cyclohexane-1-carboxamide], the IC50 under setting [2] turned out to be 1.2 nM.
On the same count and under the same terms, then `Cc1nc(-c2c(C(F)(F)F)ccc(CNC(=O)C3CCN(c4ccc(Cl)cc4)CC3)c2F)[nH]c(=O)c1F` [Example 77, 1-(4-chlorophenyl)-N-[2-fluoro-3-(5-fluoro-4-methyl-6-oxo-1,6-dihydropyrimidin-2-yl)-4-(trifluoromethyl)benzyl]piperidine-4-carboxamide], with 16 nM.
The same measure, in the same setting: the figure for `Cc1cccc2ccc(N3CCC(C(=O)NCc4ccc(C(F)(F)F)c(-c5nc(C(F)(F)F)cc(=O)[nH]5)c4F)CC3)nc12` [Example 4, N-{2-fluoro-3-[6-oxo-4-(trifluoromethyl)-1,6-dihydropyrimidin-2-yl]-4-(trifluoromethyl)benzyl}-1-(8-methylquinolin-2-yl)piperidine-4-carboxamide] is < 1 nM.
The same measure, in the same setting: then `O=C(NCc1ccc(C(F)(F)F)c(-c2nc(C(F)(F)F)cc(=O)[nH]2)c1F)C1CCN(c2ccc(Cl)c(F)c2)CC1` [Example 81, 1-(4-chloro-3-fluorophenyl)-N-{2-fluoro-3-[6-oxo-4-(trifluoromethyl)-1,6-dihydropyrimidin-2-yl]-4-(trifluoromethyl)benzyl}piperidine-4-carboxamide], with 5 nM.
